Assay results as given in PubChem BioAssay (NCI).
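48-hour exposure; five concentrations; linearly interpolated endpoints. GI50: concentration for 50% inhibition of growth. TGI is the concentration that stops growth completely.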

Experiments:
Experiment in all cases: DTP human tumour cell line panel, 48 h
RPMI-8226 leukemia = tested on: RPMI-8226 leukemia
NCI-H460 lung = tested on: NCI-H460 lung
HCT-116 colon = tested on: HCT-116 colon
HT29 colon = tested on: HT29 colon
MDA-MB-435 = tested on: MDA-MB-435
T-47D breast = tested on: T-47D breast
EKVX NSCLC = tested on: EKVX NSCLC
RXF 393 renal = tested on: RXF 393 renal
UACC-257 melanoma = tested on: UACC-257 melanoma
MCF7 breast = tested on: MCF7 breast
HOP-62 NSCLC = tested on: HOP-62 NSCLC
SW-620 colon = tested on: SW-620 colon
OVCAR-8 ovarian = tested on: OVCAR-8 ovarian
U251 CNS = tested on: U251 CNS
SR leukemia = tested on: SR leukemia
SF-295 CNS = tested on: SF-295 CNS
CCRF-CEM leukemia = tested on: CCRF-CEM leukemia
OVCAR-4 ovarian = tested on: OVCAR-4 ovarian
K-562 leukemia = tested on: K-562 leukemia
A498 renal = tested on: A498 renal
HOP-92 NSCLC = tested on: HOP-92 NSCLC
SK-MEL-5 melanoma = tested on: SK-MEL-5 melanoma
KM12 colon = tested on: KM12 colon
SF-539 CNS = tested on: SF-539 CNS
MDA-MB-231 breast = tested on: MDA-MB-231 breast
IGROV1 ovarian = tested on: IGROV1 ovarian
UO-31 renal = tested on: UO-31 renal
HCC-2998 colon = tested on: HCC-2998 colon
ACHN renal = tested on: ACHN renal
NCI-H522 lung = tested on: NCI-H522 lung
MOLT-4 leukemia = tested on: MOLT-4 leukemia
HS 578T breast = tested on: HS 578T breast
SN12C renal = tested on: SN12C renal
SF-268 CNS = tested on: SF-268 CNS
BT-549 breast = tested on: BT-549 breast
LOX IMVI melanoma = tested on: LOX IMVI melanoma
SK-MEL-28 melanoma = tested on: SK-MEL-28 melanoma
HCT-15 colon = tested on: HCT-15 colon
CAKI-1 renal = tested on: CAKI-1 renal
A549 NSCLC = tested on: A549 NSCLC
TK-10 renal = tested on: TK-10 renal
PC-3 prostate = tested on: PC-3 prostate
MALME-3M melanoma = tested on: MALME-3M melanoma
SK-OV-3 ovarian = tested on: SK-OV-3 ovarian
M14 melanoma = tested on: M14 melanoma
786-0 renal = tested on: 786-0 renal
OVCAR-3 ovarian = tested on: OVCAR-3 ovarian
OVCAR-5 ovarian = tested on: OVCAR-5 ovarian
SNB-75 CNS = tested on: SNB-75 CNS
SK-MEL-2 melanoma = tested on: SK-MEL-2 melanoma
UACC-62 melanoma = tested on: UACC-62 melanoma
NCI-H226 lung = tested on: NCI-H226 lung
HL-60(TB) leukemia = tested on: HL-60(TB) leukemia
MDA-MB-468 breast = tested on: MDA-MB-468 breast
NCI-H23 lung = tested on: NCI-H23 lung
DU-145 prostate = tested on: DU-145 prostate
COLO 205 colon = tested on: COLO 205 colon
SNB-19 CNS = tested on: SNB-19 CNS

## O=C(/C=C/c1ccc(F)cc1)c1nc2ccccc2n1Cc1ccc(Br)cc1
RPMI-8226 leukemia
  GI50: 2.29 µM
  TGI: 6.87 µM
NCI-H460 lung
  GI50: 1.89 µM
  TGI: 4 µM
HCT-116 colon
  GI50: 1.96 µM
  TGI: 4.26 µM
HT29 colon
  GI50: 2.37 µM
  TGI: 4.93 µM
MDA-MB-435
  GI50: 1.85 µM
  TGI: 4.19 µM
T-47D breast
  GI50: 2.68 µM
  TGI: 11.3 µM
EKVX NSCLC
  GI50: 2.62 µM
  TGI: 7.78 µM
RXF 393 renal
  GI50: 1.48 µM
  TGI: 2.89 µM
UACC-257 melanoma
  GI50: 3.2 µM
  TGI: 14.7 µM
MCF7 breast
  GI50: 1.72 µM
  TGI: 9.27 µM
HOP-62 NSCLC
  GI50: 2.1 µM
  TGI: 4.87 µM
SW-620 colon
  GI50: 2.14 µM
  TGI: 4.44 µM
OVCAR-8 ovarian
  GI50: 2.26 µM
  TGI: 5.51 µM
U251 CNS
  GI50: 1.54 µM
  TGI: 2.99 µM
SR leukemia
  GI50: 2.79 µM
  TGI: > 100 µM
SF-295 CNS
  GI50: 2.14 µM
  TGI: 5.29 µM
CCRF-CEM leukemia
  GI50: 1.62 µM
  TGI: 8.35 µM
OVCAR-4 ovarian
  GI50: 4.3 µM
  TGI: 51.4 µM
K-562 leukemia
  GI50: 2.84 µM
  TGI: > 100 µM
A498 renal
  GI50: 17.2 µM
  TGI: 32.1 µM
HOP-92 NSCLC
  GI50: 2.03 µM
  TGI: 12.1 µM
SK-MEL-5 melanoma
  GI50: 2.36 µM
  TGI: 6.69 µM
KM12 colon
  GI50: 2.13 µM
  TGI: 5.22 µM
SF-539 CNS
  GI50: 1.91 µM
  TGI: 3.8 µM
MDA-MB-231 breast
  GI50: 2.1 µM
  TGI: 4.66 µM
IGROV1 ovarian
  GI50: 2.31 µM
  TGI: 5.81 µM
UO-31 renal
  GI50: 1.42 µM
  TGI: 2.93 µM
HCC-2998 colon
  GI50: 1.81 µM
  TGI: 3.36 µM
ACHN renal
  GI50: 2.8 µM
  TGI: 8.7 µM
NCI-H522 lung
  GI50: 2.17 µM
  TGI: 4.68 µM
MOLT-4 leukemia
  GI50: 2.41 µM
  TGI: 8.96 µM
HS 578T breast
  GI50: 3.71 µM
  TGI: 43.3 µM
SN12C renal
  GI50: 3.02 µM
  TGI: 11.1 µM
SF-268 CNS
  GI50: 3.58 µM
  TGI: 67.8 µM
BT-549 breast
  GI50: 2.24 µM
  TGI: 5.81 µM
LOX IMVI melanoma
  GI50: 1.59 µM
  TGI: 3.06 µM
SK-MEL-28 melanoma
  GI50: 1.85 µM
  TGI: 3.77 µM
HCT-15 colon
  GI50: 1.67 µM
  TGI: 3.46 µM
CAKI-1 renal
  GI50: 1.97 µM
  TGI: 5.74 µM
A549 NSCLC
  GI50: 3.93 µM
  TGI: 35.3 µM
TK-10 renal
  GI50: 2.73 µM
  TGI: 8.11 µM
PC-3 prostate
  GI50: 3.37 µM
  TGI: 13.7 µM
MALME-3M melanoma
  GI50: 1.83 µM
  TGI: 4.17 µM
SK-OV-3 ovarian
  GI50: 10.5 µM
  TGI: > 100 µM
M14 melanoma
  GI50: 2.33 µM
  TGI: 6.43 µM
786-0 renal
  GI50: 1.93 µM
  TGI: 3.89 µM
OVCAR-3 ovarian
  GI50: 1.76 µM
  TGI: 3.42 µM
OVCAR-5 ovarian
  GI50: 1.94 µM
  TGI: 4.16 µM
SNB-75 CNS
  GI50: 1.2 µM
  TGI: 12.2 µM
SK-MEL-2 melanoma
  GI50: 2.12 µM
  TGI: 4.74 µM
UACC-62 melanoma
  GI50: 1.74 µM
  TGI: 4.3 µM
NCI-H226 lung
  GI50: 2.96 µM
  TGI: 13.1 µM
HL-60(TB) leukemia
  GI50: 2.02 µM
  TGI: 6.3 µM
MDA-MB-468 breast
  GI50: 1.9 µM
  TGI: 4.12 µM
NCI-H23 lung
  GI50: 1.95 µM
  TGI: 4.37 µM
DU-145 prostate
  GI50: 3.47 µM
  TGI: 26 µM
COLO 205 colon
  GI50: 2.35 µM
  TGI: 5.55 µM

## CN(C)c1nc(NCCNS(=O)(=O)c2ccc(C3=Nc4c(N)nc(N)nc4NC(c4ccc(C(F)(F)F)cc4)C3)cc2)nc(N2CCOCC2)n1 (stereo not drawn)
RPMI-8226 leukemia
  GI50: 11.2 µM
  TGI: > 100 µM
NCI-H460 lung
  GI50: 36.5 µM
  TGI: > 100 µM
HCT-116 colon
  GI50: 41.9 µM
  TGI: > 100 µM
HT29 colon
  GI50: 19.8 µM
  TGI: 48.2 µM
MDA-MB-435
  GI50: 34.2 µM
  TGI: > 100 µM
T-47D breast
  GI50: 21.3 µM
  TGI: > 100 µM
EKVX NSCLC
  GI50: 47.2 µM
  TGI: > 100 µM
RXF 393 renal
  GI50: 10.3 µM
  TGI: 45.5 µM
UACC-257 melanoma
  GI50: 20.4 µM
  TGI: 54.9 µM
MCF7 breast
  GI50: 18.1 µM
  TGI: 81.3 µM
HOP-62 NSCLC
  GI50: 50.7 µM
  TGI: > 100 µM
SW-620 colon
  GI50: 46.9 µM
  TGI: > 100 µM
OVCAR-8 ovarian
  GI50: 59.5 µM
  TGI: > 100 µM
U251 CNS
  GI50: 24.2 µM
  TGI: > 100 µM
SR leukemia
  GI50: 18.1 µM
  TGI: > 100 µM
SF-295 CNS
  GI50: 21.1 µM
  TGI: 83.7 µM
CCRF-CEM leukemia
  GI50: 25.9 µM
  TGI: > 100 µM
OVCAR-4 ovarian
  GI50: 37 µM
  TGI: > 100 µM
K-562 leukemia
  GI50: 29.1 µM
  TGI: > 100 µM
A498 renal
  GI50: 24.1 µM
  TGI: 82.9 µM
HOP-92 NSCLC
  GI50: 7.48 µM
  TGI: 48.3 µM
SK-MEL-5 melanoma
  GI50: 15.9 µM
  TGI: 30.1 µM
KM12 colon
  GI50: 37 µM
  TGI: > 100 µM
SF-539 CNS
  GI50: 22.5 µM
  TGI: 87.9 µM
MDA-MB-231 breast
  GI50: 16.9 µM
  TGI: 44.4 µM
IGROV1 ovarian
  GI50: 27 µM
  TGI: > 100 µM
UO-31 renal
  GI50: > 100 µM
  TGI: > 100 µM
HCC-2998 colon
  GI50: 20.2 µM
  TGI: 46.4 µM
ACHN renal
  GI50: 64.4 µM
  TGI: > 100 µM
NCI-H522 lung
  GI50: 51.7 µM
  TGI: > 100 µM
MOLT-4 leukemia
  GI50: 17.3 µM
  TGI: > 100 µM
HS 578T breast
  GI50: 19.2 µM
  TGI: > 100 µM
SN12C renal
  GI50: 35.7 µM
  TGI: > 100 µM
SF-268 CNS
  GI50: 19.9 µM
  TGI: > 100 µM
BT-549 breast
  GI50: 13.8 µM
  TGI: 31.8 µM
LOX IMVI melanoma
  GI50: 17.1 µM
  TGI: 33.2 µM
SK-MEL-28 melanoma
  GI50: 34.1 µM
  TGI: > 100 µM
HCT-15 colon
  GI50: 30.9 µM
  TGI: > 100 µM
CAKI-1 renal
  GI50: 25.9 µM
  TGI: > 100 µM
A549 NSCLC
  GI50: 51.3 µM
  TGI: > 100 µM
TK-10 renal
  GI50: 54.4 µM
  TGI: > 100 µM
PC-3 prostate
  GI50: 24.6 µM
  TGI: > 100 µM
MALME-3M melanoma
  GI50: 19.9 µM
  TGI: 53.3 µM
SK-OV-3 ovarian
  GI50: 69.7 µM
  TGI: > 100 µM
M14 melanoma
  GI50: 22 µM
  TGI: 63.8 µM
786-0 renal
  GI50: 20.8 µM
  TGI: > 100 µM
OVCAR-3 ovarian
  GI50: 53.9 µM
  TGI: > 100 µM
OVCAR-5 ovarian
  GI50: 27 µM
  TGI: 95.9 µM
SK-MEL-2 melanoma
  GI50: 15.8 µM
  TGI: 30.2 µM
SNB-19 CNS
  GI50: 30 µM
  TGI: > 100 µM
UACC-62 melanoma
  GI50: 16.4 µM
  TGI: 36.4 µM
NCI-H226 lung
  GI50: 17.6 µM
  TGI: > 100 µM
HL-60(TB) leukemia
  GI50: 27.4 µM
  TGI: 83.9 µM
MDA-MB-468 breast
  GI50: 13.7 µM
  TGI: 30.9 µM
NCI-H23 lung
  GI50: 37.6 µM
  TGI: > 100 µM
DU-145 prostate
  GI50: 72 µM
  TGI: > 100 µM
COLO 205 colon
  GI50: 16.5 µM
  TGI: 35.5 µM
